Measurements as given in patent publication US20250296961A1, “ANTIMICROBIAL PEPTIDES FOR REMINERALIZATION OF TEETH AND PREVENTION OF DENTAL CARIES” (The University of Hong Kong, priority 2021, published 2025).

Columns and labels:
[1] = Adsorption capacity assay: peptides with HA particles (Micro BCA); assay type: binding
Method: The adsorption of P-113, P-113-DPS, P-113-DA, and P-113-SK to HA particles (Sigma Chemical Co., St Louis, USA) was measured using the Micro BCA method with Sp-H5 as the control group. Solutions of P-113, P-113-DPS, P-113-DA, P-113-SK and Sp-H5 in 10 mM HEPES buffer (pH 7) were diluted to 10 nmol/mL concentrations, and 200 μL was placed into each tube (P-113, N=10; P-113-DPS, N=10; P-113-DA, N=10; P-113-SK, N=10; and Sp-H5, N=10). Peptide solutions were mixed with (n=5) or without (n=5) HA particles (20 mg/tube) in each group. Tubes were placed onto a rotator overnight at 37° C. for complete reaction. Tubes containing the peptide solution and HA were centrifuged (13000 rpm, 1 min) and the supernatant collected. Bovine serum albumin (BSA) standard solutions (working range=5-250 μg/mL) and working reagent were prepared using the Pierce BCA Protein Assay Kit (Rockford, IL, USA). Working reagents (100 μL/well) were added to a 96-well plate, followed by standard and peptide solutions (100 μL/well). The Plate was incubated in the dark for 30 min and the absorbance (562 nm) measured using a plate reader. The concentration (C) of the BSA standard solution was linear with the absorbance (A) at 562 nm. The function of C=a*A+b was determined (a and b as constants). The final concentration (the peptide solution mixed with HA) and the initial concentration (the peptide solution without HA) were computed using the function and the generated absorbance data of the peptide solution mixed with and without HA.

[2] = Adsorption time assay on tooth enamel (Micro BCA); assay type: binding, human; conditions: 10 nmol/mL peptide, 37° C.
Method: 3×3×1.5 mm^3 (number: 197) tooth slices were prepared using a water-cooled diamond saw (IsoMet low-speed saw, Buehler, Lake Bluff, IL, USA). One working surface of complete enamel tissue from each tooth slice was generated using the MicroCT Skyscan 1172 (Bruker MicroCT, Kontich, Belgium). The enamel working side of the tooth slice was polished and other sides marked with acid-proof nail polish. All tooth slices were cleaned and stored in deionized water at 4° C.
Adsorption Time Assay The adsorption time of peptides to the tooth enamel was also tested using the Micro BCA method. Solutions of P-113, P-113-DPS, P-113-DA, and P-113-SK in 10 mM HEPES buffer (pH 7) were diluted to 10 nmol/mL. Enamel working surfaces of tooth slices (N=20) were exposed to P-113 solution (n=5), P-113-DPS solution (n=5), P-113-DA solution (n=5), and P-113-SK solution (n=5), respectively. The remaining extraneous surfaces were covered with wax. Tubes were placed into a rotator at 37° C. […] After a 30-min incubation, absorbance was measured. A function of C=a*A+b was determined (a and b are constants). The concentrations of the peptide solution at different time points (C0, C1, C2, C3, C4, and C5 at 0, 5, 20, 40, 60, and 120 min, respectively) were computed based on absorbances […].

S. mutans = assay: Anti-planktonic bacterial ability, MBC (Example 2); assay type: cell-based, S. mutans (ATCC 35668)
Method: (§1) S. mutans (ATCC 35668, ATCC, Manassas, USA), S. gordonii (ATCC 35105, ATCC, Manassas, USA), and S. sanguinis (ATCC 10556, ATCC, Manassas, USA) strains were cultured in brain-heart infusion broth (BHI, Difco Laboratories, Detroit, USA) at 37° C. under anaerobic conditions (85% N2, 10% H2, and 5% CO2). Bacteria were harvested by centrifugation (5000 rpm, 10 min), washed once with sodium phosphate-buffered saline (PBS, 10 mM, pH=7.2), and resuspended in BHI at a concentration of 1×10^6 CFU mL^−1.
(§2) Each well was seeded with 10 μL S. mutans suspension, S. gordonii suspension, and S. sanguinis suspension, respectively. […] The bacterial growth was assessed by measuring the absorbance at 595 nm using a microplate reader after a 24-hour incubation. Subsequently, 10 μL of bacterial suspension from each well were plated on horse blood agar plates and incubated at 37° C. for 48 h. The antibacterial activities of AMPs were evaluated.

S. gordonii = assay: Anti-planktonic bacterial ability, MBC (Example 2); assay type: cell-based, S. gordonii (ATCC 35105)
Method: as §1, §2

Sequence: AKRHHGYKRKFH [Peptide P-113, non-specific AMP, portion of human histatin 5]
- Concentration change (95% CI) ([1]; initial vs final concentration with HA particles): 0.29 (−0.01-0.61)
- Final concentration (Mean ± SD) ([1]; peptide solution mixed with HA particles (20 mg/tube), overnight 37° C.): 9.86 ± 0.23 nM mL^−1
- Adsorption time on enamel (majority of adsorption / significant decrease in concentration) [2]: 60 min
- MBC, S. mutans (S. mutans): >128 μM mL^−1
- MBC, S. gordonii (S. gordonii): >128 μM mL^−1
